This note sets out measurements from patent US11230543B2, “Biaryl monobactam compounds and methods of use thereof for the treatment of bacterial infections” (priority 2015, dated 2022).

Assay [1] deals with Pseudomonas aeruginosa expressing AmpC (CL5701). As to the kind of experiment: Antibiotic activity: growth inhibitory concentration (OD600), Pseudomonas aeruginosa CL5701. As to conditions: lowest concentration inhibiting 95% of bacterial growth; in the presence of β lactamase inhibitor Relebactam 4 μg/mL; 35±2° C. for 22 hours; tested range 100 μM to 0.098 μM. It is filed as cell-based. On the procedure:
(§1) Antibiotic Activity: Determination of Growth Inhibitory Concentration
(§2) The concentrations of compounds required to inhibit the growth of various strains of bacteria were determined in an assay that assessed bacterial growth by measuring optical density at 600 nm (OD600). The bacterial strains tested included the clinical strains Escherichia coli expressing NDM-1 (CLB30016), Klebsiella pneumoniae expressing KPC-1 (CL6569), Acinetobacter baumannii expressing TEM-1, AmpC, and Oxa-24/40 (CL6188) and Pseudomonas aeruginosa expressing AmpC (CL5701). All compounds were tested in the presence of a β lactamase inhibitor (BLi, Relebactam) in 384-well microplates. The clinical strains were stored as frozen single use stocks, thawed and diluted into 1.1× cation-adjusted Mueller-Hinton II broth to achieve approximately 2×10^5 CFU/mL. Test compounds were dissolved in DMSO and diluted 1:50 in the assay, resulting in a final concentration range of 100 μM to 0.098 μM. On the day of the assay, 1 μL of test compound was added to the plate followed by 4 μL of 50 μg/mL BLi in MOPS buffer and 45 μL of diluted bacteria. Plates were centrifuged at 1000 rpm for 30 seconds, shaken at approximately 800 rpm for 1 minute, and incubated at 35±2° C. for 22 hours. The concentration of BLi used in the assay was 4 μg/mL. At the end of the incubation, absorbance at 600 nm was determined using a spectrophotometer. Inhibition was quantitated by identifying the lowest concentration of test compound that was required to inhibit 95% of the growth of the bacteria. The results for Examples 1-126 are reported in Table I, expressed as the concentration of compound that inhibited 95% of bacterial growth (Minimum Inhibitory Threshold Concentration; MITC95).

Assay [2] relates to Klebsiella pneumoniae expressing KPC-1 (CL6569). As to the kind of experiment: Antibiotic activity: growth inhibitory concentration (OD600), Klebsiella pneumoniae CL6569. It is filed as cell-based. As to conditions: lowest concentration inhibiting 95% of bacterial growth; in the presence of β lactamase inhibitor Relebactam 4 μg/mL; 35±2° C. for 22 hours; tested range 100 μM to 0.098 μM. On the procedure:
as §1, §2

Structures can show the parent of a compound that is named as a salt.

Regarding `C[n+]1cc(-c2ccc(OC[C@H](O/N=C(\C(=O)N[C@@H]3C(=O)N(OS(=O)(=O)O)C3(C)C)c3csc(N)n3)C(=O)O)cc2F)cn1CCCN` [Example 24, (S)-3-((Z)-2-(((S)-2-(4-(1-(3-aminopropyl)-2-methyl-1H-pyrazol-2-ium-4-yl)-3-fluorophenoxy)-1-carboxyethoxy)imino)-2-(2-aminothiazol-4-yl)acetamido)-2,2-dimethyl-4-oxoazetidin-1-yl sulfate], the “PA_CL5701 MITC95” value in assay [1] was 3.125 µM. Further, the “KP_CL6569 MITC95” value in assay [2] was found to be 0.3906 µM.
On the same counts, the results for `C[C@@H]1[C@H](NC(=O)/C(=N\O[C@@](C)(COc2ccc(-c3cn(CCCN)[n+](C)c3)cc2)C(=O)O)c2csc(N)n2)C(=O)N1S(=O)(=O)O.O=C([O-])C(F)(F)F` [Example 25, 1-(3-aminopropyl)-4-(4-((S)-2-((((Z)-1-(2-aminothiazol-4-yl)-2-(((2R,3S)-2-methyl-4-oxo-1-sulfoazetidin-3-yl)amino)-2-oxoethylidene)amino)oxy)-2-carboxypropoxy)phenyl)-2-methyl-1H-pyrazol-2-ium 2,2,2-trifluoroacetate] are 3.125 µM and 0.3906 µM.
Take `C[n+]1cc(OC[C@H](O/N=C(\C(=O)N[C@@H]2C(=O)N(OS(=O)(=O)O)C2(C)C)c2csc(N)n2)C(=O)O)ccc1-c1cnn(CCCN)c1.O=C([O-])C(F)(F)F` [Example 26, 2-(1-(3-aminopropyl)-1H-pyrazol-4-yl)-5-((S)-2-((((Z)-1-(2-aminothiazol-4-yl)-2-(((S)-2,2-dimethyl-4-oxo-1-(sulfooxy)azetidin-3-yl)amino)-2-oxo-ethylidene)amino)oxy)-2-carboxyethoxy)-1-methylpyridin-1-ium 2,2,2-trifluoroacetate]: the “PA_CL5701 MITC95” value in assay [1] is 50 µM. Further, the “KP_CL6569 MITC95” value in assay [2] is 1.563 µM.
On the same counts, the results for `CC1(C)[C@H](NC(=O)/C(=N\O[C@@H](COc2ccc(-c3cn(CCCN)nc3N)cc2)C(=O)O)c2csc(N)n2)C(=O)N1OS(=O)(=O)O` [Example 27, (S)-3-(4-(3-amino-1-(3-aminopropyl)-1H-pyrazol-4-yl)phenoxy)-2-((((Z)-1-(2-aminothiazol-4-yl)-2-(((S)-2,2-dimethyl-4-oxo-1-(sulfooxy)azetidin-3-yl)amino)-2-oxoethylidene)amino)oxy)propanoic acid] are 6.25 µM and 0.7813 µM.
On the same counts, the results for `C[n+]1c(N)c(-c2ccc(OC[C@H](O/N=C(\C(=O)N[C@@H]3C(=O)N(OS(=O)(=O)[O-])C3(C)C)c3csc(N)n3)C(=O)O)cc2)cn1CCCN` [Example 28, (S)-3-((Z)-2-(((S)-2-(4-(3-Amino-1-(3-aminopropyl)-2-methyl-1H-pyrazol-2-ium-4-yl)phenoxy)-1-carboxyethoxy)imino)-2-(2-aminothiazol-4-yl)acetamido)-2,2-dimethyl-4-oxoazetidin-1-yl sulfate] are 3.13 µM and 0.2 µM.
On the same counts, the results for `C[C@H]1[C@H](NC(=O)/C(=N\O[C@@H](COc2ccc(-c3cn(CCCN)[n+](C)c3)cc2)c2nn[nH]n2)c2csc(N)n2)C(=O)N1S(=O)(=O)O.O=C([O-])C(F)(F)F` [Example 30, 1-(3-aminopropyl)-4-(4-((R)-2-((((Z)-1-(2-aminothiazol-4-yl)-2-(((2S,3S)-2-methyl-4-oxo-1-sulfoazetidin-3-yl)amino)-2-oxoethylidene)amino)oxy)-2-(2H-tetrazol-5-yl)ethoxy)phenyl)-2-methyl-1H-pyrazol-2-ium 2,2,2-trifluoroacetate] are 6.25 µM and 3.125 µM.
As for `CC1(C)[C@H](NC(=O)/C(=N\O[C@@H](COc2ccc(-c3cn(CCCN)c(N)n3)cc2)C(=O)O)c2csc(N)n2)C(=O)N1OS(=O)(=O)O.O=C(O)C(F)(F)F` [Example 31, 3-(2-amino-4-(4-((S)-2-((((Z)-1-(2-aminothiazol-4-yl)-2-(((S)-2,2-dimethyl-4-oxo-1-(sulfooxy)azetidin-3-yl)amino)-2-oxoethylidene)amino)oxy)-2-carboxyethoxy)phenyl)-1H-imidazol-1-yl)propan-1-aminium 2,2,2-trifluoroacetate], the “PA_CL5701 MITC95” value in assay [1] worked out at 3.125 µM. Also, the “KP_CL6569 MITC95” value in assay [2] turned out to be 0.3906 µM.
The corresponding values for `Cn1c(-c2ccc(OC[C@H](O/N=C(\C(=O)N[C@@H]3C(=O)N(OS(=O)(=O)O)C3(C)C)c3csc(N)n3)C(=O)O)cc2)cn(CCCN)c1=N.O=C(O)C(F)(F)F` [Example 32, 3-(4-(4-((S)-2-((((Z)-1-(2-aminothiazol-4-yl)-2-(((S)-2,2-dimethyl-4-oxo-1-(sulfooxy)-azetidin-3-yl)amino)-2-oxoethylidene)amino)oxy)-2-carboxyethoxy)phenyl)-2-imino-3-methyl-2,3-dihydro-1H-imidazol-1-yl)propan-1-aminium 2,2,2-trifluoroacetate] are 3.125 µM and 0.1953 µM.
The corresponding values for `CC1(C)[C@H](NC(=O)/C(=N\O[C@@H](COc2ccc(Nc3cc[n+](CCCN)cc3)nc2)C(=O)O)c2csc(N)n2)C(=O)N1OS(=O)(=O)O` [Example 33, 1-(3-aminopropyl)-4-((5-((S)-2-((((Z)-1-(2-aminothiazol-4-yl)-2-(((S)-2,2-dimethyl-4-oxo-1-(sulfooxy)azetidin-3-yl)amino)-2-oxoethylidene)amino)oxy)-2-carboxyethoxy)pyridin-2-yl)amino)pyridin-1-ium 2,2,2-trifluoroacetate] are 6.25 µM and 0.3906 µM.
As for `CC1(C)[C@H](NC(=O)/C(=N\O[C@@H](COc2ccc(Oc3cc[n+](CCCN)cc3)nc2)C(=O)O)c2csc(N)n2)C(=O)N1OS(=O)(=O)O.O=C([O-])C(F)(F)F` [Example 34, 1-(3-aminopropyl)-4-((5-((S)-2-((((Z)-1-(2-aminothiazol-4-yl)-2-(((S)-2,2-dimethyl-4-oxo-1-(sulfooxy)azetidin-3-yl)amino)-2-oxoethylidene)amino)oxy)-2-carboxyethoxy)pyridin-2-yl)oxy)pyridin-1-ium 2,2,2-trifluoroacetate], the “PA_CL5701 MITC95” value in assay [1] turned out to be 25 µM. The “KP_CL6569 MITC95” value in assay [2] was 0.78 µM.
On the same counts, the results for `CC1(C)[C@H](NC(=O)/C(=N\OCCOc2ccc(-n3cc[n+](CCCN)c3)nc2)c2csc(N)n2)C(=O)N1OS(=O)(=O)[O-]` [Example 35, (S,Z)-3-(2-((2-((6-(3-(3-aminopropyl)-1H-imidazol-3-ium-1-yl)pyridin-3-yl)oxy)ethoxy)imino)-2-(2-aminothiazol-4-yl)acetamido)-2,2-dimethyl-4-oxoazetidin-1-yl sulfate 2,2,2-trifluoroacetate] are 50 µM and 1.281 µM.
The corresponding values for `CC1(C)[C@H](NC(=O)/C(=N\O[C@@H](COc2ccc(-n3cc[n+](CCCN)c3)nc2)C(=O)O)c2csc(N)n2)C(=O)N1OS(=O)(=O)[O-]` [Example 36, (S)-3-((Z)-2-(((S)-2-((6-(3-(3-aminopropyl)-1H-imidazol-3-ium-1-yl)pyridin-3-yl)oxy)-1-carboxyethoxy)imino)-2-(2-aminothiazol-4-yl)acetamido)-2,2-dimethyl-4-oxoazetidin-1-yl sulfate compound with 2,2,2-trifluoroacetic acid (1:1)] are 6.25 µM and 0.7813 µM.
